Legend:
[1] = acute toxicity in rats; conditions: rat, in vivo
[2] = test system: SD-strain rats; experiment: Test Example 1: tardive dyskinesia induced by haloperidol (1.5 mg/kg i.p. daily, 3 weeks) in rats; type: in vivo, SD-strain rats (male); conditions: for Number of the tongue protrusions / Number of the chewings: 15 min observation from 3 min after dosing, Mean±SE; for Number of the tongue protrusions: control 7.7 ± 2.1; for Number of the chewings: control 111.2 ± 27.8
Experimental: After lapse of 96 hours from the completion of the last administration of haloperidol, the number of the vacuous chewing movements of the mouth and the number of abnormal tongue-protruding movements of the rats were counted as the parameters indicative of tardive dyskinesia.

[3] = test system: SD-strain rats; experiment: Test Example 2: oral dyskinesia induced by haloperidol decanoate (25 mg/kg i.m. every 4 weeks, 24 weeks) in rats; type: in vivo, SD-strain rats (male); conditions: for Number of the tongue protrusions / Number of the chewings: 15 min observation from 15 min after dosing, Mean±SE; for Number of the tongue protrusions: control 17.2 ± 5.5; for Number of the chewings: control 213.3 ± 50.5; for suppression of oral dyskinesia: haloperidol decanoate-induced, rats, i.p.
Experimental: Haloperidol decanoate was intramuscularly injected in the femoral region of each rat of SD-strain rats (male, 6 rats per group) at a dose of 25 mg/kg once for every 4 weeks during the total period of 24 weeks.
To the control group of rats was intraperitoneally administered only the physiological saline containing 10% Cremophor.
The numbers of the vacuous chewing movements and the abnormal tongue-protruding movements appearing during the 15 min. period of the observation were counted as indices of oral dyskinesia in the rats.
Values of Mean±Standard error of the numbers of the abnormal movements as observed were calculated, and the results obtained are shown in Table 3 below.

[4] = test system: cAMP in the brain; conditions: rats; animal tests, J. Med. Chem. 34(1), 291-293 (1991); cited from earlier work
[5] = target: phosphodiesterase IV; conditions: Type of PDE inhibited: IV; in vitro; cited from earlier work
[6] = test system: SD-strain rats; experiment: Test Example 3: oral dyskinesia induced by haloperidol (1.5 mg/kg i.p. daily, 5 weeks) in rats; type: in vivo, SD-strain rats (female)
Experimental: Haloperidol in the form of a suspension of haloperidol in 0.5% aqueous carboxymethylcellulose was intraperitoneally administrated at a dose of 1.5 mg/kg to each rat of SD-strain rats (female, 7 to 8 rats per group) once a day for consecutive five weeks.
Ro 20-1724 was formulated into the form of a suspension in which said compound was partially dissolved and partially dispersed in a physiological saline containing 10% Cremophor. On the next day of the final administration of haloperidol, Ro 20-1724 as the suspension was intraperitoneally administered at a dose of 3 mg/kg, […] or 30 mg/kg in the rats under test. To the control group of rats was administered only the physiological saline containing 10% Cremophor.
The numbers of the vacuous chewing movements and the abnormal tongue-protruding movements appearing during the 15 min. period of the observation were counted as the indices of oral dyskinesia in the rats. The net observation time was calculated by substracting from the total observation time of 15 minutes the amount of time which the rat spent in exploration or grooming. The indices of the oral dyskinesia were expressed as the number of occurrence of the abnormal movements observed in one minute of the net observation time.

[7] = target: phosphodiesterase I ~ V; conditions: Type of PDE inhibited: I ~ V; in vitro; cited from earlier work
[8] = target: phosphodiesterase I; conditions: Type of PDE inhibited: I; in vitro; cited from earlier work
[9] = test system: patients; conditions: long-term administration; cited from earlier work

Compound: COc1ccc(C2CNC(=O)C2)cc1OC1CCCC1 (racemic) [Rolipram, (±)-4-[3-(cyclopentyloxy)-4-methoxyphenyl]-2-pyrrolidinone]
- LD50 ([1]; ip, intraperitoneal): ~500 mg/kg
- LD50 ([1]; oral): ~1200 mg/kg
- Number of the tongue protrusions ([2]; 0.5 mg/kg i.p.): 2.7 ± 1.7
- Number of the chewings ([2]; 0.5 mg/kg i.p.): 32.2 ± 14.5
- Number of the tongue protrusions ([2]; 1.0 mg/kg i.p.): 1.5 ± 1.5
- Number of the chewings ([2]; 1.0 mg/kg i.p.): 8.8 ± 4.0
- therapeutic effect on symptoms of tardive dyskinesia ([2]; haloperidol-induced rat model, i.p. 0.5 and 1.0 mg/kg): suppresses in a dose-dependent manner the symptoms of tardive dyskinesia
- Number of the tongue protrusions ([3]; 0.1 mg/kg i.p.): 6.0 ± 2.2
- Number of the chewings ([3]; 0.1 mg/kg i.p.): 138.0 ± 38.1
- Number of the tongue protrusions ([3]; 0.5 mg/kg i.p.): 1.7 ± 1.1
- Number of the chewings ([3]; 0.5 mg/kg i.p.): 33.8 ± 13.8
- Number of the tongue protrusions ([3]; 1.0 mg/kg i.p.): 1.3 ± 1.1
- Number of the chewings ([3]; 1.0 mg/kg i.p.): 42.0 ± 9.5
- suppression of oral dyskinesia [3]: suppress in a dose-dependent manner the oral dyskinesia
- concentration of cAMP in the brain [4]: can increase the concentration of cAMP in the brain of rats

Compound: CCCCn1c(=O)c2c(ncn2CC(C)=O)n(CCCC)c1=O [Denbufylline, 7-(2-oxopropyl)-1,3-di-n-butylxanthine]
- IC50 [5]: 0.3 µM

Compound: CC(C)Cn1c(=O)n(C)c(=O)c2[nH]cnc21 [IBMX, 3-isobutyl-1-methylxanthine]
- Number of the tongue protrusions ([3]; 2.0 mg/kg i.p.): 4.8 ± 1.8
- Number of the chewings ([3]; 2.0 mg/kg i.p.): 135.3 ± 45.0
- suppression of oral dyskinesia [3]: had a tendency to suppress the above-mentioned oral dyskinesia

Compound: CCCCOc1cc(CC2CNC(=O)N2)ccc1OC (centres unmarked) [Ro 20-1724]
- Number of the tongue protrusions ([6]; 3 mg/kg i.p., number in one minute of net observation time, Mean±SE, n = 8, control 1.90 ± 0.87): 0.46 ± 0.17
- Number of the chewings ([6]; 3 mg/kg i.p., number in one minute of net observation time, Mean±SE, n = 8, control 16.2 ± 2.4): 11.7 ± 2.1
- suppression of oral dyskinesia ([6]; haloperidol-induced, rats, i.p. 3, 10, 30 mg/kg): suppressed in a dose dependent manner the oral dyskinesia
- IC50 [5]: 2 µM

Compound: Cn1c(=O)c2[nH]cnc2n(C)c1=O [Theophylline, 3,7-dihydro-1,3-dimethyl-1H-purine-2,6-dione]
- IC50 [7]: ~200 µM

Compound: CCOC(=O)C1=C[C@]2(CC)CCCN3CCc4c(n1c1ccccc41)[C@@H]32 [Vinpocetine, eburnamenine 14-carboxylic acid ethyl ester]
- IC50 [8]: 20 µM

Compound: O=C(CCCN1CCC(O)(c2ccc(Cl)cc2)CC1)c1ccc(F)cc1 [haloperidol]
- adverse reaction [9]: induction of tardive dyskinesia
